Results on seven molecules are retold here after PMC12072147, “Antioxidant and Neuroprotective Properties of Selected Pyrrole-Containing Azomethine Compounds in Neurotoxicity Models In Vitro” (International Journal of Molecular Sciences, 2025).

The subject of data set [1] is SH-SY5Y cells. In words: In vitro cytotoxicity in neuroblastoma cell line SH-SY5Y (MTT). The class given is cell-based. The following applies: Homo sapiens, 24 h treatment, 0.1-500 µM, read-out: IC50 (cell viability). The method, then:
(§1) The neuroblastoma cell line SH-SY5Y was acquired from Sigma-Aldrich (ACACC cell lines). They were cultured in Roswell Park Memorial Institute 1640 (RPMI) cell medium supplemented with 10% heat-inactivated fetal bovine serum (FBS) and 2 mM L-glutamine. The cells were maintained at 37 °C in an atmosphere containing 5% CO2 in a humidified incubator.
SH-SY5Y cells were seeded in 96-well plates at a density of 2.5 × 10^4 cells/well. The plates were incubated for 24 h to ensure proper attachment. Cell viability assays were performed after treatment with the test compounds at concentrations of 0.1, 1, 5, 10, 50, 100, 250, and 500 μM, according to the protocol of Mosmann (1984). Each compound was tested in 6 wells. Following the treatment for 24 h, a solution of (3-(4,5-dimethylthiazol-2-yl)-2,5-diphenyltetrazolium bromide) MTT at a concentration of 5 mg/mL was prepared and briefly vortexed. The culture medium was aspirated and replaced with 100 μL of MTT solution in each well. The plates were then incubated for 3 h. After incubation, the formazan crystals were dissolved using 100 μL dimethylsulphoxide (DMSO), and the absorbance was measured at 570 nm (690 nm for the background absorbance) using a multiple reader Synergy 2 (BioTek Instruments, Inc., Highland Park, Winooski, VT, USA).

The test system of data set [2] is isolated brain mitochondria. In words: t-BuOOH-induced oxidative stress in brain mitochondria. The following applies: 100 µM compound + t-BuOOH, compared to t-BuOOH alone.
In data set [3] the test system is isolated rat brain synaptosomes. Kind of data set: 6-OHDA-induced neurotoxicity in isolated rat brain synaptosomes. Format: cell-based. The conditions noted are these: for preserved GSH levels in synaptosomes / viability at 100 µM: 100 µM compound + 150 µM 6-OHDA; for preserved GSH levels in synaptosomes: compared to the 6-OHDA group; for viability at 100 µM: Rattus norvegicus, compared to 6-OHDA alone, read-out: preserved synaptosomal viability. The method, then: Synaptosomes and mitochondria were isolated by subcellular fractionation using a Percoll gradient, following the method described by Tauplin et al. and Sims et al.. Brain homogenate was prepared and centrifuged at 1000× g for 5 min at 4 °C. The supernatants were collected and centrifuged again at 1000× g for 5 min at 4 °C. The supernatants from both centrifugations were combined and distributed into four tubes. These tubes were then centrifuged at 10,000× g for 20 min at 4 °C three times. The final two centrifugations were performed to purify the synaptosomes and mitochondria.
The isolation process involves using a colloidal silicon solution, specifically Percoll. First, a 90% stock solution of Percoll is prepared. Next, Percoll solutions at concentrations of 16% and 10% are prepared, with 4 mL of each solution placed into six separate test tubes. To the precipitate from the final centrifugation step, 7.5% Percoll (derived from the 90% stock solution) is added. The tubes are then centrifuged at 15,000× g for 20 min at 4 °C. This procedure effectively isolates synaptosomes and mitochondria. After centrifugation, three distinct layers form in the tubes. The bottom layer contains mitochondria, the top layer contains lipids, and the middle layer—located at the 16% to 10% Percoll interface—contains synaptosomes. The corresponding layer from each tube is carefully removed using a glass Pasteur pipette and combined into one. Buffer B with glucose is then added to the mixture, which is centrifuged at 10,000 × g for 20 min at 4 °C, allowing the isolation buffer to be exchanged with the incubation buffer. After centrifugation, the pellet containing the synaptosomes is resuspended in Buffer B with glucose. Synaptosomes and mitochondria were incubated with the test substances at a concentration of 100 µM for 1 h.
This in vitro model mimics the neurodegenerative processes primarily observed in Parkinson’s disease (PD). The metabolism of 6-OHDA produces reactive quinones (p-quinone), which, in turn, generate reactive oxygen species (ROS). These reactive metabolites and ROS cause damage to both pre- and post-synaptic membranes, ultimately leading to neuronal cell damage. In this study, synaptosomes were incubated with 6-OHDA (150 μM) for 1 h to establish the model.
After a 1-h incubation with the substances and toxic agent, synaptosomes were centrifuged in a microcentrifuge at 15,000× g for 1 min. The pellet was gently mixed with Buffer B + glucose, and the supernatant containing 6-OHDA was discarded to prevent oxidation of 3-(4,5-dimethylthiazol-2-yl)-2,5-diphenyltetrazolium bromide, a tetrazole (MTT). The synaptosomes were centrifuged again at 15,000× g for 1 min. After the second wash, Buffer B + glucose was added to the pellet. Then, 60 µL of MTT solution was added to the “washed” synaptosomes. The plates were incubated with the MTT solution at 37 °C for 10 min. After incubation, the samples were centrifuged at 15,000× g for 2 min. The excess liquid was removed, and a DMSO solution was used to dissolve the formed formazan crystals. The amount of formazan was then measured spectrophotometrically at λ = 580 nm.
Following protein precipitation with trichloroacetic acid, the thiol groups in the supernatant were measured using DTNB, which produces a yellow-colored compound that absorbs light at λ = 412 nm. After incubation, synaptosomes were centrifuged at 4000× g for 3 min. The supernatant was removed, and the pellet was collected for GSH determination. The pellet was treated with 5% trichloroacetic acid and left on ice for 10 min. It was then centrifuged at 8000× g for 10 min at 2 °C. The supernatant was collected for GSH determination and frozen at −20 °C. Immediately before measurement, the samples were neutralized with 5N NaOH [50].

The subject of data set [4] is isolated rat brain microsomes. In words: In vitro toxicity (prooxidant effect, MDA) on isolated rat brain microsomes. The conditions noted are these: 100 µM, vs untreated control microsomes. Format: biochemical. Here is the method:
(§2) The brain was homogenized in 9 volumes of 0.1 M Tris buffer containing 0.1 mM dithiothreitol, 0.1 mM phenylmethylsulfonyl fluoride, 0.2 mM EDTA, 1.15% KCl, and 20% (v/v) glycerol (pH 7.4). The resulting homogenate was centrifuged twice at 17,000× g for 30 min. The supernatants from both centrifugation steps were combined and centrifuged twice at 100,000× g for 1 h. The pellet was then frozen in 0.1 M Tris buffer.
(§3) After incubating the microsomes with the substances and toxic agent, the reaction was stopped by adding 0.5 mL of 20% trichloroacetic acid, followed by 0.5 mL of 0.67% thiobarbituric acid. The reaction formed a colored complex between the malondialdehyde produced and thiobarbituric acid. The amount of malondialdehyde (MDA) was measured spectrophotometrically at 535 nm, using a molar extinction coefficient of 1.56 × 10^5 M^−1 cm^−1 for the calculation.

Data set [5] relates to isolated rat brain microsomes. In words: Non-enzyme (Fe2+/AA) lipid peroxidation in isolated rat brain microsomes. The class given is biochemical. The following applies: 100 µM compound co-incubated with Fe2+/AA, compared to the Fe2+/AA group. Here is the method:
as §2
Non-enzyme-induced lipid peroxidation was induced with 20 μM ferrous sulfate solution and 0.5 mM ascorbic acid solution [54].
as §3

Data set [6] concerns SH-SY5Y cells. In words: H2O2-induced oxidative stress model in neuroblastoma SH-SY5Y cells. The class given is cell-based, human. The following applies: H2O2 1 mM 10 min. The method, then:
as §1
In the oxidative stress model, SH-SY5Y cells (3.5 × 10^4 cells/well) were exposed to 1 mM H2O2 for 10 min. The cells were pre-treated for 1.5 h with the test compounds (0.1, 1, 5, 10, 20, and 50 µM). Subsequently, a H2O2 solution was added. Cell viability was assessed after 24 h by the MTT-dye reduction assay, as described above.
The results of the experiments performed on isolated brain synaptosomes, mitochondria, and microsomes were statistically processed using the ‘MEDCALC’ program using the non-parametric Mann–Whitney method at significance levels of p < 0.05, p < 0.01, and p < 0.001. Statistical analyses with the SH-SY5Y cell line were conducted on GraphPad Prism software (version 8, GraphPad Software, La Jolla, CA, USA). The significance of the data was assessed using one-way analysis of variance (ANOVA), followed by Dunnet’s test for post hoc multiple comparisons, to evaluate statistical differences. Values of * p ≤ 0.05, ** p ≤ 0.01, and *** p ≤ 0.001 were considered statistically significant. Cytoprotecting data were normalized as a percentage of the H2O2-treated control (defined as 0% viability). Statistical analysis was performed to compare the different groups of compounds. Statistical significance was determined using the Holm–Sidak method, with alpha = 0.05. Each row was analyzed individually, without assuming a consistent SD.

[7] abbreviates: 150 µM applied alone, vs untreated synaptosomes.

With `CCOC(=O)c1cc(-c2ccc(Br)cc2)n(C(Cc2c[nH]c3ccccc23)C(=O)N/N=C/c2ccc([N+](=O)[O-])o2)c1C` (centres unmarked) [compound 11], the concentration for half-maximal inhibition (IC50) – broadly, the concentration needed to halve the response being measured – in the data set with SH-SY5Y cells [1] came to 264 µM. Moreover, the “reduction of MDA production in mitochondria” value in data set [2] is on record as 41%. In data set [3], the “preserved GSH levels in synaptosomes” value is recorded as 60% and the viability (in general, a read-out of living cells in per cent, often relative to untreated cells) at 100 µM was found to be 69%. In addition, in data set [4], the “increase in MDA formation in microsomes” value amounted to 41%. Moreover, the “decrease of MDA production in microsomes” value in data set [5] amounted to 35%.
For `CCOC(=O)c1cc(-c2ccc(Br)cc2)n(C(Cc2c[nH]c3ccccc23)C(=O)N/N=C/c2ccc(NC(C)=O)cc2)c1C` (centres unmarked) [compound 9], the IC50 with SH-SY5Y cells [1] was > 500 µM. Besides, the “protective effect (neuroprotection)” value in the data set on SH-SY5Y cells [6] (5 µM pre-treatment 1.5 h) amounted to 47%; with SH-SY5Y cells [6] (10 µM pre-treatment 1.5 h) it was 52%. Also, in data set [3], the “preserved GSH levels in synaptosomes” value is listed as 60%. The viability at 100 µM in data set [3] amounted to 78%. In addition, the “increase in MDA formation in microsomes” value in data set [4] is reported as 38%. In addition, in data set [5], the “decrease of MDA production in microsomes” value turned out to be 26%.
`CCOC(=O)c1cc(-c2ccc(Br)cc2)n(C(Cc2c[nH]c3ccccc23)C(=O)N/N=C/c2ccccc2O)c1C` (centres unmarked) [compound 12]: the half-inhibitory concentration (IC50) with SH-SY5Y cells [1] was > 500 µM. The “protective effect (neuroprotection)” value in the data set with SH-SY5Y cells [6] (5 µM pre-treatment 1.5 h) amounted to 48%; in the data set with SH-SY5Y cells [6] (10 µM pre-treatment 1.5 h), 53%; in the data set on SH-SY5Y cells [6] (20 µM pre-treatment 1.5 h), 50%; in the data set on SH-SY5Y cells [6] (50 µM pre-treatment 1.5 h), 32%. The “preserved GSH levels in synaptosomes” value in data set [3] is 80%. Also, in data set [3], the viability at 100 µM is 82%. Further, the “increase in MDA formation in microsomes” value in data set [4] is 35%. Also, the “decrease of MDA production in microsomes” value in data set [5] was determined as 40%.
In the case of `CCOC(=O)c1cc(-c2ccc(Br)cc2)n(C(Cc2c[nH]c3ccccc23)C(=O)N/N=C/c2cc(OC)c(O)c(OC)c2)c1C` (centres unmarked) [compound 7], the IC50 in the data set on SH-SY5Y cells [1] was > 500 µM. In data set [3], the “preserved GSH levels in synaptosomes” value is given as 70% and the viability at 100 µM was 73%. Further, the “increase in MDA formation in microsomes” value in data set [4] worked out at 29%. In data set [5], the “decrease of MDA production in microsomes” value is listed as 38%.
Consider `CCOC(=O)c1cc(-c2ccc(Br)cc2)n(C(Cc2c[nH]c3ccccc23)C(=O)N/N=C/c2ccc3ccccc3c2)c1C` (centres unmarked) [compound 14], for which the half-maximal inhibitory concentration (IC50) with SH-SY5Y cells [1] was > 500 µM. For the same molecule, the “protective effect (neuroprotection)” value in the data set with SH-SY5Y cells [6] (5 µM pre-treatment 1.5 h) is on record as 33%. In addition, in the data set on SH-SY5Y cells [6] (10 µM pre-treatment 1.5 h), the “protective effect (neuroprotection)” value came out at 51%. Further, in data set [3], the “preserved GSH levels in synaptosomes” value is 70% and the viability at 100 µM was 60%. Moreover, the “increase in MDA formation in microsomes” value in data set [4] turned out to be 39%. Besides, the “decrease of MDA production in microsomes” value in data set [5] is given as 37%.
`CCOC(=O)c1cc(-c2ccc(Br)cc2)n(C(Cc2c[nH]c3ccccc23)C(=O)N/N=C/c2c3ccccc3cc3ccccc23)c1C` (centres unmarked) [compound 15]: in the data set with SH-SY5Y cells [1], the IC50 is > 500 µM. In addition, in data set [3], the “preserved GSH levels in synaptosomes” value turned out to be 70% and the viability at 100 µM was 64%. For the same molecule, the “increase in MDA formation in microsomes” value in data set [4] turned out to be 40%. Moreover, the “decrease of MDA production in microsomes” value in data set [5] was determined as 36%.
`NCCc1cc(O)c(O)cc1O` [6-OHDA, 6-hydroxydopamine, reference compound]: in data set [3] (setting [7]), the “decrease in synaptosomal viability by toxic agent alone” value is reported as 55% and the “reduction in GSH levels by toxic agent alone” value came to 50%.
